Data from paper PMC10823475, “Design, Synthesis, and Evaluation of Inhibitors of Hedgehog Acyltransferase” (Journal of Medicinal Chemistry, 2024).

How the values were obtained:
[1] = MTS assay, cytotoxicity (72 h); format: cell-based; settings: human, HEK293a SHH+ cells, 72 h; for CC50 at 72 h: read-out: MTS Assay (HEK293a SHH+) CC50 (CI95)
Method: The survival of HEK293a SHH^+ cells is independent of HH signaling,[35] therefore, the cytotoxicity of analogues was tested using the MTS assay to investigate off-target toxicity. In this assay, HEK293a SHH^+ cells were treated with DMSO vehicle or varying concentrations of analogues for 72 h. Subsequently, a mixture of 1-methoxy phenazine methosulfate (PMS) and [3-(4,5-dimethylthiazol-2-yl)-5-(3-carboxymethoxyphenyl)-2-(4-sulfophenyl)-2H-tetrazolium] (MTS) was added to enable quantification of cell number via colorimetric analysis. […] Compounds 3, 17, 19, 32, 34, 38, and 45, which all contain a 2-((2-methylbutyl)amino)acetyl, were toxic to HEK293a SHH^+ cells, as were ureas 26, 40, and 41.
HEK293a SHH^+ cells were plated at 5000 cells/well in a 96-well plate (Nunc) using a volume of 50 μL/well and cultured for 24 h as described. Cells were treated with 100 μL/well of either DMSO vehicle, Puromycin (2 μg/mL), or stated analogues (0.14–100 μM final) in DMEM supplemented with 10% FBS. After 72 h, 20 μL/well of a mixture of 1-methoxy phenazine methosulfate (PMS) and [3-(4,5-dimethylthiazol-2-yl)-5-(3-carboxymethoxyphenyl)-2-(4-sulfophenyl)-2H-tetrazolium] (MTS) at a ratio of MTS/PMS = 2/0.92 mg/mL in PBS was added and the plates were incubated for 3 h at 37 °C. Subsequently, the absorption at 490 nm was recorded using an EnVision Xcite 2104 (PerkinElmer), and the response was normalized to vehicle control and Puromycin treated samples. Dose response curves were fitted to a “sigmoidal dose response (variable slope)” model using GraphPad Prism 5 (GraphPad Software, Inc.).

purified HHAT = biological target: T1, purified HHAT (Homo sapiens, UniProt Q5VTY9); test: Acyl-cLIP assay, inhibition of purified HHAT; format: biochemical; settings: for IC50: purified HHAT, read-out: Acyl-cLIP Assay IC50 (CI95)
T1 construct: made in house
T1 sequence (Q5VTY9 whole entry): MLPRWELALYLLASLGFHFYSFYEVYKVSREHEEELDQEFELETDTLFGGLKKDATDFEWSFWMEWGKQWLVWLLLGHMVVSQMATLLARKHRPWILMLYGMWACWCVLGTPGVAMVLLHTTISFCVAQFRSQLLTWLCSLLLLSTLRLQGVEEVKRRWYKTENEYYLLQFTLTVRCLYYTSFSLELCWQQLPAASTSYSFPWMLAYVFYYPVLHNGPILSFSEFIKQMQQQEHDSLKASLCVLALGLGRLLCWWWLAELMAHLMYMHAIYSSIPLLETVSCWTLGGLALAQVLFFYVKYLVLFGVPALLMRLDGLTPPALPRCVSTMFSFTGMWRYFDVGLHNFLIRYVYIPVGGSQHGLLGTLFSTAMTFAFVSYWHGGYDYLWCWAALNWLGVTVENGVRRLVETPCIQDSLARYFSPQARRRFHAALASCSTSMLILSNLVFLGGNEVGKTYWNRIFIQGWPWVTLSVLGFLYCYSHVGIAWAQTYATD
Method: The inhibitory potency of all 50 compounds against purified HHAT was quantified using the acylation-coupled lipophilic induction of polarization (acyl-cLIP) assay recently developed in our lab, a universally applicable assay for high-throughput analysis of protein–lipid transferases and hydrolases.[31],[40] In brief, in this assay a fluorescently labeled peptide based on the N-terminal sequence of SHH is incubated with N-dodecyl β-D-maltoside (DDM) solubilized purified HHAT, palmitoyl-CoA, and HHAT inhibitors. Binding of the lipidated peptide product to the DDM micelle results in decreased tumbling rate and an increase in polarization of fluorescence emission, enabling facile quantification of HHAT activity. Initially, % HHAT inhibition was determined at 50 μM and 25 μM for all analogues. […] HHAT is a 12-pass TM protein,[14] and we considered whether lipophilicity might bias inhibition; pIC50 values were compared to calculated log D, which indicated no significant correlation (SI, Table S1 and Figure S2). We concluded that lipophilicity is not a general driver of HHAT inhibitory potency.
The acyl-cLIP assay has been described previously.[40] Briefly, SHH-FAM peptide was diluted in buffer A (100 mM MES, 20 mM NaCl, 1 mM DTT, 1 mM TCEP, 0.1% BSA, pH 6.5) to a concentration of 2 μM. Palmitoyl-CoA (Sigma-Aldrich) was diluted in buffer A to 7.5 μM and recombinant HHAT (obtained by following the published protocol[14]) in buffer B (20 mM HEPES, 350 mM NaCl, 1% DDM, 5% glycerol, pH 7.3) diluted to 44 μg/mL. 1.5 μL of a 50 mM inhibitor DMSO stock was diluted with 18.5 μL of DMSO and further serial diluted (1:1). For each condition, 6 μL of the HHAT working stock and […] of the SHH-peptide working stock were mixed with 3 μL of the corresponding inhibitor concentration or DMSO vehicle. Twelve μL/well of this mixture was split into four wells of a black 384 well plate. To start the reaction, 8 μL of the Pal-CoA working stock were added to each well and fluorescence anisotropy and the total fluorescence recorded on an EnVision Xcite 2104 (PerkinElmer) over 30 min (emission filter 1 = FITC FP P-pol 535; emission filter 2 = FITC S-pol 535; excitation filter: FITC FP 480; measurement height = 6.5 mm; detector gain = 0; high concentration gain). Initial rate constants were determined by linear regression and normalized to DMSO control and samples with buffer B instead of HHAT. IC50 values were extracted from the corresponding dose response curves using a “sigmoidal dose response (variable slope)” model in GraphPad Prism 5 (GraphPad Software, Inc.).

SMILES	viability at 72 h, 12.5 µM [1] [%]	viability at 72 h, 25 µM [1] [%]	inhibition at 25 µM (purified HHAT) [%]	inhibition at 50 µM (purified HHAT) [%]	IC50 (purified HHAT) [µM]	CC50 at 72 h [1] [µM]	HHAT inhibition in the acyl-cLIP assay (purified HHAT)
O=C([C@@H]1CCCN1)N1CCc2sccc2C1c1ccccc1 (mixture of isomers) [Compound 9, (S)-4-Phenyl-5-prolyl-4,5,6,7-tetrahydrothieno[3,2-c]pyridine]	90 ± 5	81 ± 5	4 ± 5	30 ± 2	> 25		
CC(C)CNCC(=O)N1CCc2ccccc2C1c1ccccc1 (stereo in doubt) [Compound 42, (S)-2-((2-Methylpropyl)amino)-1-(1-phenyl-3,4-dihydroisoquinolin-2(1H)-yl)ethan-1-one]	92 ± 4	91 ± 2	6 ± 2	7 ± 2	> 100	> 100	no inhibitory activity
Clc1ccc(OCC2NCCc3sccc32)cc1 (stereo not drawn) [Compound 1]	95 ± 3	84 ± 4	16 ± 5	2 ± 2	> 25		inactive
c1ccc(C2NCCc3sccc32)cc1 (stereo not drawn) [Compound 4]	90 ± 2	84 ± 3	5 ± 3	-16 ± 16	> 25		inactive
CC(=S)N1CCc2sccc2C1c1ccccc1 (stereo not drawn) [Compound 6]	27 ± 2	29 ± 5	44 ± 7	38 ± 2	> 25		
C[C@H](N)C(=O)N1CCc2sccc2C1c1ccccc1 (stereo partly drawn) [Compound 7, (2S)-2-Amino-1-(4-phenyl-6,7-dihydrothieno[3,2-c]pyridin-5(4H)-yl)propan-1-one]	99 ± 3	74 ± 4	42 ± 1	67 ± 3			
CC(C)[C@H](N)C(=O)N1CCc2sccc2C1c1ccccc1 (stereo partly drawn) [Compound 8, (2S)-2-Amino-3-methyl-1-(4-phenyl-6,7-dihydrothieno[3,2-c]pyridin-5(4H)-yl)butan-1-one]	92 ± 3	92 ± 3	9 ± 4	7 ± 11	> 25		
N[C@H](C(=O)N1CCc2sccc2C1c1ccccc1)c1ccccc1 (stereo partly drawn) [Compound 10, (2S)-2-Amino-2-phenyl-1-(4-phenyl-6,7-dihydrothieno[3,2-c]pyridin-5(4H)-yl)ethan-1-one]	74 ± 3	43 ± 2	18 ± 1	21 ± 7	> 25		
N[C@@H](Cc1ccccc1)C(=O)N1CCc2sccc2C1c1ccccc1 (stereo partly drawn) [Compound 11, (2S)-2-Amino-3-phenyl-1-(4-phenyl-6,7-dihydrothieno[3,2-c]pyridin-5(4H)-yl)propan-1-one]	46 ± 2	38 ± 1	-6 ± 3	-2 ± 6	> 25		
CCCCCCCC(=O)N1CCc2sccc2C1c1ccccc1 (stereo not drawn) [Compound 13, 1-(4-Phenyl-6,7-dihydrothieno[3,2-c]pyridin-5(4H)-yl)octan-1-one]	47 ± 1	35 ± 2	6 ± 6	4 ± 6	> 25		loss of activity
Cc1cccc(C2NCCc3sccc32)c1 (stereo not drawn) [Compound 14]	72 ± 3	74 ± 3	5 ± 3	-16 ± 16	> 25		inactive
C=CCN1CCc2sccc2C1c1cccc(C)c1 (stereo not drawn) [Compound 15]	81 ± 2	74 ± 2	-1 ± 5	-5 ± 9	> 25		no inhibitory effect
Cc1cccc(C2NCCc3sccc32)n1 (stereo not drawn) [Compound 20]	82 ± 2	68 ± 3	9 ± 10	-2 ± 19	> 25		inactive
CC(=O)N1CCc2sccc2[C@H]1c1cccc(C)n1 [Compound 27, (S)-1-(4-(6-Methylpyridin-2-yl)-6,7-dihydrothieno[3,2-c]pyridin-5(4H)-yl)ethan-1-one]	90 ± 4	89 ± 3	4 ± 7	27 ± 6	> 100	> 100	no inhibitory activity
CC(=O)N1CCc2sccc2C1c1ccccc1O (stereo not drawn) [Compound 33]	88 ± 3	87 ± 5	24 ± 1	31 ± 1	> 25	> 100	
CC(=O)N1CCc2sccc2C1C1CCCCC1 (stereo not drawn) [Compound 35]	54 ± 2	59 ± 3	6 ± 7	8 ± 7	> 25		loss of activity
CCC(C)CNCC(=O)N1CCc2sccc2C1C1CCCCC1 (stereo not drawn) [Compound 36, 1-(4-Cyclohexyl-6,7-dihydrothieno[3,2-c]pyridin-5(4H)-yl)-2-((2-methylbutyl)amino)ethan-1-one]	47 ± 4	25 ± 1	24 ± 1	24 ± 14	> 25		loss of activity
CCC(C)CNCC(=O)N1CCc2cc(OC)c(OC)cc2C1c1ccccc1 (stereo not drawn) [Compound 44, 1-(6,7-Dimethoxy-1-phenyl-3,4-dihydroisoquinolin-2(1H)-yl)-2-((2-methylbutyl)amino)ethan-1-one]	96 ± 3	95 ± 5	7 ± 3	8 ± 2	> 100	> 100	complete loss of HHAT inhibition
C=CC(=O)N1CCn2cccc2C1c1ccccc1 (stereo not drawn) [Compound 46, 1-(1-Phenyl-3,4-dihydropyrrolo[1,2-a]pyrazin-2(1H)-yl)prop-2-en-1-one]	96 ± 2	97 ± 2	7 ± 1	12 ± 1	> 25	> 100	loss of potency
CC(=O)N1CCCCC1c1ccccc1 (stereo not drawn) [Compound 47, 1-(2-Phenylpiperidin-1-yl)ethan-1-one]	95 ± 2	93 ± 5	-14 ± 2	-3 ± 2	> 25	> 50	
C=CC(=O)N1CCCCC1c1ccccc1 (stereo not drawn) [Compound 48, 1-(2-Phenylpiperidin-1-yl)prop-2-en-1-one]	93 ± 2	90 ± 2	-2 ± 3	-3 ± 2	> 25	> 100	
